Values quoted from earlier work as cited in patent publication US9820994B2, “Cerclage pessary containing progesterone of prolonged, sustained, and continuous release useful for prevention of preterm birth” (Laboratorios Andromaco S.A., priority 2014, dated 2017).

Test system: women at risk of preterm birth (short cervix / history of preterm birth)

In the case of `CC(=O)[C@H]1CC[C@H]2[C@@H]3CCC4=CC(=O)CC[C@]4(C)[C@H]3CC[C@]12C` [progesterone], the “Reduction in rate of spontaneous preterm birth before 33-34 weeks” value (250 mg IM weekly, 200 mg daily vaginal suppositories, 90 mg vaginal gel) is given as “approximately 40%”, the “Rate of births before 34 weeks” value (vaginal progesterone group, singleton, previous preterm birth, cervical length less than 25 mm (Alfirevic et al., 2013)) is given as roughly 30% and the “Reduction of the rate of spontaneous preterm birth before 33-34 weeks” value (vaginally administered, patients with short cervix) is given as 40-45%.
